These are literature values, as cited in US8445278B2, “Process for producing decellularized biological tissues” (Medtronic, Inc., priority 2005, dated 2013).

In general, pIC50 refers to the IC50 on a negative log10 scale, so that one unit is a factor of ten.

This data set concerns fresh rat hepatocytes.

pIC50: −log10 of the molar value. Some results are limits rather than exact numbers.

For the compound `CCCCCCCCCCCCOS(=O)(=O)[O-].[Na+]` [SDS, sodium dodecyl sulphate], the pIC50 was 4.31 and the “concentration at which SDS is toxic” value was at least 10 µM.
